{"source": "patent US20230058171A1", "about": "“NEW ORAL PHARMACEUTICAL COMPOSITION FOR CANCER THERAPY” (BOEHRINGER INGELHEIM INTERNATIONAL GMBH, priority 2021, published 2023)", "tested_on": "patients with advanced or metastatic solid tumors", "assay": "Trial 1403-0001 Phase Ia dose escalation, Arm A (D1 q3w): adverse events", "format": "in vivo", "description": "Trial 1403-0001 was a first in human Phase Ia/Ib, open label, multicenter, dose-escalation study of the MDM2-antagonist of formula I in patients with advanced or metastatic solid tumors. The Phase Ia dose escalation part aimed to define the Maximum Tolerated Dose (MTD) and the Recommended Dose for Expansion (RDE) for the MDM2-antagonist of formula I based on safety and tolerability, pharmacokinetics, pharmacodynamics, and preliminary efficacy. The RDE will be further explored in the Phase Ib expansion part of the trial.\nFifty-four patients had been treated with the MDM2-antagonist of formula I in the Phase Ia dose escalation part of clinical trial 1403-0001. Twenty-nine patients were treated in Arm A (dosing regimen: dosing on Day 1 of a 21 days-cycle, D1 q3w) and twenty-five patients were treated in Arm B (dosing regimen: dosing on Day 1 and on Day 8 of a 28 days-cycle, D1 D8 q4w). Dose levels evaluated in Arm A were 10, 20, 30, 45, 50, 60, and 80 mg. Dose levels evaluated in Arm B (referring to the dose administered on Day 1 and Day 8) were 5, 10, 15, 20, 30, 45, and 60 mg.\nDuring the on-treatment period, all 29 patients were reported with adverse events (AEs). […] A total of 27 patients (93.1%) were reported with at least 1 AE judged to be related to the MDM2-antagonist of formula I by investigators."}
{"smiles": "Cc1c(C(=O)O)ccc2c3n(nc12)[C@@H]1[C@H](C3)N(CC2CC2)[C@@]2(C(=O)Nc3cc(Cl)ccc32)[C@H]1c1cccc(Cl)c1F", "note": "[MDM2-antagonist of formula I, (2′S,3′S,3a'S,10a'S)-6-chloro-3′-(3-chloro-2-fluorophenyl)-1′-(cyclopropylmethyl)-6′-methyl-2-oxo-1,2,3′,3a′,10′,10a′-hexahydro-1′H-spiro[indole-3,2′-pyrrolo[2′,3′:4,5]pyrrolo[1,2-b]indazole]-7′-carboxylic acid]", "values": [{"measurement": "Serious AEs: Results in Death, %", "setting": "Arm A D1 q3w, 10 mg", "value": 0, "unit": "%"}, {"measurement": "Subjects with maximum CTC Grade 5, %", "setting": "Arm A D1 q3w, 10 mg", "value": 0, "unit": "%"}, {"measurement": "Serious AEs: Results in Death, %", "setting": "Arm A D1 q3w, 20 mg", "value": 0, "unit": "%"}, {"measurement": "Subjects with maximum CTC Grade 5, %", "setting": "Arm A D1 q3w, 20 mg", "value": 0, "unit": "%"}, {"measurement": "Serious AEs: Results in Death, %", "setting": "Arm A D1 q3w, 30 mg", "value": 0, "unit": "%"}, {"measurement": "Subjects with AEs leading to dose reduction of trial drug, %", "setting": "Arm A D1 q3w, 30 mg", "value": 33.3, "unit": "%"}, {"measurement": "Subjects with maximum CTC Grade 2, %", "setting": "Arm A D1 q3w, 30 mg", "value": 33.3, "unit": "%"}, {"measurement": "Subjects with maximum CTC Grade 3, %", "setting": "Arm A D1 q3w, 30 mg", "value": 66.7, "unit": "%"}, {"measurement": "Subjects with maximum CTC Grade 5, %", "setting": "Arm A D1 q3w, 30 mg", "value": 0, "unit": "%"}, {"measurement": "Patients with Dose limiting toxicity, %", "setting": "Arm A D1 q3w, 45 mg", "value": 33.3, "unit": "%"}, {"measurement": "Serious AEs: Results in Death, %", "setting": "Arm A D1 q3w, 45 mg", "value": 0, "unit": "%"}, {"measurement": "Subjects with AEs leading to dose reduction of trial drug, %", "setting": "Arm A D1 q3w, 45 mg", "value": 33.3, "unit": "%"}, {"measurement": "Subjects with maximum CTC Grade 3, %", "setting": "Arm A D1 q3w, 45 mg", "value": 33.3, "unit": "%"}, {"measurement": "Subjects with maximum CTC Grade 5, %", "setting": "Arm A D1 q3w, 45 mg", "value": 0, "unit": "%"}, {"measurement": "Serious AEs: Results in Death, %", "setting": "Arm A D1 q3w, 50 mg", "value": 0, "unit": "%"}, {"measurement": "Subjects with maximum CTC Grade 5, %", "setting": "Arm A D1 q3w, 50 mg", "value": 0, "unit": "%"}, {"measurement": "Serious AEs: Results in Death, %", "setting": "Arm A D1 q3w, 60 mg", "value": 0, "unit": "%"}, {"measurement": "Subjects with maximum CTC Grade 3, %", "setting": "Arm A D1 q3w, 60 mg", "value": 71.4, "unit": "%"}, {"measurement": "Subjects with maximum CTC Grade 5, %", "setting": "Arm A D1 q3w, 60 mg", "value": 0, "unit": "%"}, {"measurement": "Patients with Dose limiting toxicity, %", "setting": "Arm A D1 q3w, 80 mg", "value": 66.7, "unit": "%"}, {"measurement": "Serious AEs: Requires or Prolongs Hospitalization, %", "setting": "Arm A D1 q3w, 80 mg", "value": 33.3, "unit": "%"}, {"measurement": "Serious AEs: Results in Death, %", "setting": "Arm A D1 q3w, 80 mg", "value": 0, "unit": "%"}, {"measurement": "Subjects with maximum CTC Grade 2, %", "setting": "Arm A D1 q3w, 80 mg", "value": 33.3, "unit": "%"}, {"measurement": "Subjects with maximum CTC Grade 4, %", "setting": "Arm A D1 q3w, 80 mg", "value": 66.7, "unit": "%"}, {"measurement": "Subjects with maximum CTC Grade 5, %", "setting": "Arm A D1 q3w, 80 mg", "value": 0, "unit": "%"}, {"measurement": "Subjects with serious AEs, %", "setting": "Arm A D1 q3w, 80 mg", "value": 33.3, "unit": "%"}, {"measurement": "Serious AEs: Requires or Prolongs Hospitalization, %", "setting": "Arm A D1 q3w, Total", "value": 31.0, "unit": "%"}, {"measurement": "Serious AEs: Results in Death, %", "setting": "Arm A D1 q3w, Total", "value": 0, "unit": "%"}, {"measurement": "Subjects with AEs leading to Discontinuation of trial drug, %", "setting": "Arm A D1 q3w, Total", "value": 6.9, "unit": "%"}, {"measurement": "Subjects with maximum CTC Grade 5, %", "setting": "Arm A D1 q3w, Total", "value": 0, "unit": "%"}, {"measurement": "drug-related AE diarrhea, patients", "setting": "Arm A, all 29 patients", "value": 27.6, "unit": "%"}, {"measurement": "drug-related AE fatigue, patients", "setting": "Arm A, all 29 patients", "value": 41.1, "unit": "%"}, {"measurement": "drug-related AE nausea, patients", "setting": "Arm A, all 29 patients", "value": 72.4, "unit": "%"}, {"measurement": "drug-related AE platelet count decreased, patients", "setting": "Arm A, all 29 patients", "value": 37.9, "unit": "%"}, {"measurement": "drug-related AE vomiting, patients", "setting": "Arm A, all 29 patients", "value": 41.1, "unit": "%"}, {"measurement": "drug-related AE white blood cell count decreased, patients", "setting": "Arm A, all 29 patients", "value": 27.6, "unit": "%"}, {"measurement": "fatal AEs", "setting": "Arm A, all 29 patients", "value": "No fatal AEs were reported"}, {"measurement": "patients with DLTs during the MTD evaluation period (cycle 1)", "setting": "Arm A, all 29 patients", "value": 17.2, "unit": "%"}, {"measurement": "AE anemia, patients", "setting": "human, in vivo", "value": 41.4, "unit": "%"}, {"measurement": "AE back pain, patients", "setting": "human, in vivo", "value": 20.7, "unit": "%"}, {"measurement": "AE decreased appetite, patients", "setting": "human, in vivo", "value": 41.4, "unit": "%"}, {"measurement": "AE diarrhea, patients", "setting": "human, in vivo", "value": 34.5, "unit": "%"}, {"measurement": "AE fatigue, patients", "setting": "human, in vivo", "value": 51.7, "unit": "%"}, {"measurement": "AE nausea, patients", "setting": "human, in vivo", "value": 82.8, "unit": "%"}, {"measurement": "AE platelet count decreased, patients", "setting": "human, in vivo", "value": 37.9, "unit": "%"}, {"measurement": "AE vomiting, patients", "setting": "human, in vivo", "value": 48.3, "unit": "%"}, {"measurement": "AEs leading to Discontinuation: Other adverse event, %", "setting": "human, in vivo", "value": 3.4, "unit": "%"}, {"measurement": "Grade 3 AE platelet count decreased, patients", "setting": "human, in vivo", "value": 13.8, "unit": "%"}, {"measurement": "Grade 4 AE neutrophil count decreased, patients", "setting": "human, in vivo", "value": 10.3, "unit": "%"}, {"measurement": "SAE platelet count decreased, patients", "setting": "human, in vivo", "value": 6.9, "unit": "%"}, {"measurement": "Serious AEs: Cogenital Anomaly or Birth Defect, %", "setting": "human, in vivo", "value": 0, "unit": "%"}, {"measurement": "Serious AEs: Is Life Threatening, %", "setting": "human, in vivo", "value": 0, "unit": "%"}, {"measurement": "Serious AEs: Other Medically Important Serious Event, %", "setting": "human, in vivo", "value": 3.4, "unit": "%"}, {"measurement": "Serious AEs: Persists of Signif. Disability/Incapacity, %", "setting": "human, in vivo", "value": 0, "unit": "%"}, {"measurement": "Subjects with any AE, %", "setting": "human, in vivo", "value": 100, "unit": "%"}, {"measurement": "Subjects with investigator defined drug-related AEs, %", "setting": "human, in vivo", "value": 93.1, "unit": "%"}, {"measurement": "Subjects with maximum CTC Grade 1, %", "setting": "human, in vivo", "value": 3.4, "unit": "%"}, {"measurement": "Subjects with maximum CTC Grade 2, %", "setting": "human, in vivo", "value": 27.6, "unit": "%"}, {"measurement": "Subjects with maximum CTC Grade 3, %", "setting": "human, in vivo", "value": 51.7, "unit": "%"}, {"measurement": "Subjects with maximum CTC Grade 4, %", "setting": "human, in vivo", "value": 17.2, "unit": "%"}, {"measurement": "Subjects with serious AEs, %", "setting": "human, in vivo", "value": 31.0, "unit": "%"}, {"measurement": "dose reduction due to enterocolitis, patients", "setting": "human, in vivo", "value": 3.4, "unit": "%"}, {"measurement": "dose reduction due to nausea, patients", "setting": "human, in vivo", "value": 6.9, "unit": "%"}, {"measurement": "dose reduction due to neutropenia and/or thrombocytopenia, patients", "setting": "human, in vivo", "value": 20.7, "unit": "%"}, {"measurement": "drug-related AE anemia, patients", "setting": "human, in vivo", "value": 24.1, "unit": "%"}, {"measurement": "drug-related AE decreased appetite, patients", "setting": "human, in vivo", "value": 34.5, "unit": "%"}]}
